Measured values as given in the NIST ThermoML archive (doi:10.1021/je049671t).
± gives the expanded uncertainty stated by the source.

Experiment: xn = mol fraction of the nth substance listed
Settings: Liquid, Vibrating tube method

CC(C)C [2-methylpropane] + CCCC
Settings | mass density [kg/m3]
300 K, 5514.6 kPa, x2 = 0.25 | 564.1 ± 0.33
300 K, 5950.5 kPa, x2 = 0.75 | 574.92 ± 0.33
300 K, 5960.3 kPa, x2 = 0.5 | 570.04 ± 0.34
300 K, 6036.6 kPa, x2 = 0.25 | 565.05 ± 0.34
300 K, 6473.1 kPa, x2 = 0.75 | 575.78 ± 0.34
300 K, 6498 kPa, x2 = 0.25 | 565.9 ± 0.35
300 K, 6511.5 kPa, x2 = 0.5 | 571.01 ± 0.34
300 K, 7001.6 kPa, x2 = 0.25 | 566.76 ± 0.35
300 K, 7003.6 kPa, x2 = 0.5 | 571.85 ± 0.35
300 K, 7005.5 kPa, x2 = 0.75 | 576.66 ± 0.35
320 K, 978.9 kPa, x2 = 0.5 | 535.28 ± 0.29
320 K, 1008.4 kPa, x2 = 0.75 | 541.4 ± 0.29
320 K, 1010.3 kPa, x2 = 0.25 | 529.04 ± 0.29
320 K, 1496.2 kPa, x2 = 0.25 | 530.4 ± 0.3
320 K, 1506.1 kPa, x2 = 0.75 | 542.64 ± 0.29
320 K, 1594.1 kPa, x2 = 0.5 | 536.89 ± 0.3
320 K, 2006 kPa, x2 = 0.75 | 543.82 ± 0.3
320 K, 2007.9 kPa, x2 = 0.5 | 537.95 ± 0.3
320 K, 2013.6 kPa, x2 = 0.25 | 531.82 ± 0.3
320 K, 2503.8 kPa, x2 = 0.75 | 545.03 ± 0.3
320 K, 2511 kPa, x2 = 0.25 | 533.15 ± 0.31
320 K, 2513.8 kPa, x2 = 0.5 | 539.22 ± 0.31
320 K, 2989.3 kPa, x2 = 0.25 | 534.4 ± 0.31
320 K, 2990.8 kPa, x2 = 0.75 | 546.14 ± 0.31
320 K, 3020.8 kPa, x2 = 0.5 | 540.47 ± 0.31
320 K, 3465.4 kPa, x2 = 0.5 | 541.53 ± 0.32
320 K, 3504.2 kPa, x2 = 0.25 | 535.74 ± 0.32
320 K, 3510.6 kPa, x2 = 0.75 | 547.3 ± 0.32
320 K, 3972.8 kPa, x2 = 0.5 | 542.72 ± 0.32
320 K, 3986.7 kPa, x2 = 0.75 | 548.41 ± 0.32
320 K, 4006.4 kPa, x2 = 0.25 | 537 ± 0.33
320 K, 4485.3 kPa, x2 = 0.25 | 538.17 ± 0.33
320 K, 4492.1 kPa, x2 = 0.5 | 543.94 ± 0.33
320 K, 4515.1 kPa, x2 = 0.75 | 549.56 ± 0.33
320 K, 4992.4 kPa, x2 = 0.5 | 545.07 ± 0.34
320 K, 4997.8 kPa, x2 = 0.75 | 550.6 ± 0.33
320 K, 4998.1 kPa, x2 = 0.25 | 539.39 ± 0.34
320 K, 5465.3 kPa, x2 = 0.5 | 546.12 ± 0.34
320 K, 5506.3 kPa, x2 = 0.25 | 540.6 ± 0.34
320 K, 5508.2 kPa, x2 = 0.75 | 551.69 ± 0.34
320 K, 5970.9 kPa, x2 = 0.25 | 541.67 ± 0.35
320 K, 5971.8 kPa, x2 = 0.5 | 547.22 ± 0.35
320 K, 6015.9 kPa, x2 = 0.75 | 552.74 ± 0.35
320 K, 6462.7 kPa, x2 = 0.5 | 548.28 ± 0.35
320 K, 6488.4 kPa, x2 = 0.75 | 553.71 ± 0.35
320 K, 6514.9 kPa, x2 = 0.25 | 542.91 ± 0.36
320 K, 7034.9 kPa, x2 = 0.25 | 544.07 ± 0.36
320 K, 7065.7 kPa, x2 = 0.75 | 554.85 ± 0.36
320 K, 7093.8 kPa, x2 = 0.5 | 549.62 ± 0.36
340 K, 998.6 kPa, x2 = 0.5 | 506.59 ± 0.3
340 K, 1008.5 kPa, x2 = 0.75 | 513.55 ± 0.3
340 K, 1505.9 kPa, x2 = 0.75 | 515.25 ± 0.3
340 K, 1510 kPa, x2 = 0.25 | 501.39 ± 0.31
340 K, 1561.3 kPa, x2 = 0.5 | 508.67 ± 0.3
340 K, 2003.4 kPa, x2 = 0.25 | 503.24 ± 0.31
340 K, 2008.5 kPa, x2 = 0.5 | 510.27 ± 0.31
340 K, 2020.5 kPa, x2 = 0.75 | 516.97 ± 0.31
340 K, 2495.8 kPa, x2 = 0.25 | 505.08 ± 0.32
340 K, 2500.9 kPa, x2 = 0.75 | 518.54 ± 0.31
340 K, 2527.9 kPa, x2 = 0.5 | 512.06 ± 0.32
340 K, 3001.4 kPa, x2 = 0.5 | 513.65 ± 0.32
340 K, 3005.7 kPa, x2 = 0.75 | 520.07 ± 0.32
340 K, 3009.8 kPa, x2 = 0.25 | 506.91 ± 0.32
340 K, 3499.6 kPa, x2 = 0.75 | 521.61 ± 0.33
340 K, 3512.9 kPa, x2 = 0.25 | 508.67 ± 0.33
340 K, 3521.9 kPa, x2 = 0.5 | 515.35 ± 0.33
340 K, 4004.8 kPa, x2 = 0.25 | 510.31 ± 0.34
340 K, 4004.8 kPa, x2 = 0.75 | 523.11 ± 0.33
340 K, 4042.3 kPa, x2 = 0.5 | 516.97 ± 0.33
340 K, 4496.4 kPa, x2 = 0.75 | 524.53 ± 0.34
340 K, 4508.6 kPa, x2 = 0.25 | 511.95 ± 0.34
340 K, 4526.2 kPa, x2 = 0.5 | 518.46 ± 0.34
340 K, 4981.3 kPa, x2 = 0.25 | 513.47 ± 0.35
340 K, 4988.5 kPa, x2 = 0.5 | 519.84 ± 0.35
340 K, 4990.6 kPa, x2 = 0.75 | 525.87 ± 0.34
340 K, 5500.3 kPa, x2 = 0.25 | 515.08 ± 0.36
340 K, 5502 kPa, x2 = 0.5 | 521.34 ± 0.35
340 K, 5515.9 kPa, x2 = 0.75 | 527.37 ± 0.35
340 K, 5973.6 kPa, x2 = 0.75 | 528.61 ± 0.36
340 K, 5999.1 kPa, x2 = 0.25 | 516.58 ± 0.36
340 K, 6016.6 kPa, x2 = 0.5 | 522.8 ± 0.36
340 K, 6476.8 kPa, x2 = 0.5 | 524.07 ± 0.37
340 K, 6496.3 kPa, x2 = 0.75 | 529.99 ± 0.36
340 K, 6508.8 kPa, x2 = 0.25 | 518.07 ± 0.37
340 K, 7019.3 kPa, x2 = 0.75 | 531.33 ± 0.37
340 K, 7019.9 kPa, x2 = 0.25 | 519.55 ± 0.38
340 K, 7084.7 kPa, x2 = 0.5 | 525.72 ± 0.37
360 K, 1517.1 kPa, x2 = 0.75 | 483.05 ± 0.3
360 K, 1517.3 kPa, x2 = 0.5 | 475.07 ± 0.3
360 K, 1523.6 kPa, x2 = 0.25 | 466.34 ± 0.3
360 K, 1975.7 kPa, x2 = 0.25 | 469.15 ± 0.3
360 K, 1976.3 kPa, x2 = 0.75 | 485.36 ± 0.31
360 K, 2018.5 kPa, x2 = 0.5 | 477.84 ± 0.31
360 K, 2482.6 kPa, x2 = 0.25 | 472.1 ± 0.31
360 K, 2496 kPa, x2 = 0.75 | 487.85 ± 0.32
360 K, 2525 kPa, x2 = 0.5 | 480.5 ± 0.31
360 K, 2961.3 kPa, x2 = 0.75 | 489.97 ± 0.32
360 K, 3005.9 kPa, x2 = 0.5 | 482.91 ± 0.32
360 K, 3010.1 kPa, x2 = 0.25 | 474.99 ± 0.32
360 K, 3489.3 kPa, x2 = 0.75 | 492.24 ± 0.33
360 K, 3507.7 kPa, x2 = 0.25 | 477.58 ± 0.33
360 K, 3511.2 kPa, x2 = 0.5 | 485.28 ± 0.33
360 K, 3977.2 kPa, x2 = 0.75 | 494.26 ± 0.34
360 K, 4007.3 kPa, x2 = 0.25 | 480.03 ± 0.33
360 K, 4019.1 kPa, x2 = 0.5 | 487.57 ± 0.34
360 K, 4443.6 kPa, x2 = 0.75 | 496.16 ± 0.35
360 K, 4493 kPa, x2 = 0.25 | 482.35 ± 0.34
360 K, 4510.2 kPa, x2 = 0.5 | 489.71 ± 0.34
360 K, 4948.8 kPa, x2 = 0.75 | 498.12 ± 0.35
360 K, 5010.2 kPa, x2 = 0.25 | 484.66 ± 0.35
360 K, 5018.9 kPa, x2 = 0.5 | 491.8 ± 0.35
360 K, 5499.8 kPa, x2 = 0.75 | 500.18 ± 0.36
360 K, 5503.6 kPa, x2 = 0.25 | 486.78 ± 0.36
360 K, 5508.6 kPa, x2 = 0.5 | 493.77 ± 0.36
360 K, 5964.2 kPa, x2 = 0.75 | 501.91 ± 0.37
360 K, 6002.5 kPa, x2 = 0.25 | 488.86 ± 0.37
360 K, 6019.4 kPa, x2 = 0.5 | 495.75 ± 0.37
360 K, 6484.4 kPa, x2 = 0.75 | 503.73 ± 0.38
360 K, 6497.2 kPa, x2 = 0.25 | 490.83 ± 0.37
360 K, 6511.4 kPa, x2 = 0.5 | 497.56 ± 0.38
360 K, 7022.1 kPa, x2 = 0.5 | 499.47 ± 0.39
360 K, 7041 kPa, x2 = 0.25 | 492.93 ± 0.38
360 K, 7073.3 kPa, x2 = 0.75 | 505.68 ± 0.38
380 K, 1992.3 kPa, x2 = 0.75 | 445.43 ± 0.3
380 K, 2496.5 kPa, x2 = 0.25 | 428.54 ± 0.3
380 K, 2506.6 kPa, x2 = 0.5 | 440.41 ± 0.3
380 K, 2519.3 kPa, x2 = 0.75 | 449.94 ± 0.3
380 K, 3005 kPa, x2 = 0.5 | 444.82 ± 0.31
380 K, 3007.8 kPa, x2 = 0.25 | 433.95 ± 0.3
380 K, 3014.5 kPa, x2 = 0.75 | 453.77 ± 0.31
380 K, 3482.8 kPa, x2 = 0.75 | 457.09 ± 0.32
380 K, 3498.2 kPa, x2 = 0.25 | 438.53 ± 0.31
380 K, 3519 kPa, x2 = 0.5 | 448.92 ± 0.32
380 K, 4000 kPa, x2 = 0.25 | 442.76 ± 0.32
380 K, 4015.3 kPa, x2 = 0.5 | 452.56 ± 0.32
380 K, 4022 kPa, x2 = 0.75 | 460.64 ± 0.33
380 K, 4463.2 kPa, x2 = 0.25 | 446.33 ± 0.33
380 K, 4476.8 kPa, x2 = 0.75 | 463.44 ± 0.33
380 K, 4521.7 kPa, x2 = 0.5 | 456 ± 0.33
380 K, 4994 kPa, x2 = 0.75 | 466.44 ± 0.34
380 K, 5001.3 kPa, x2 = 0.5 | 459.04 ± 0.34
380 K, 5004.6 kPa, x2 = 0.25 | 450.19 ± 0.33
380 K, 5481.2 kPa, x2 = 0.25 | 453.35 ± 0.34
380 K, 5504.5 kPa, x2 = 0.75 | 469.24 ± 0.35
380 K, 5511.6 kPa, x2 = 0.5 | 462.08 ± 0.35
380 K, 5986.7 kPa, x2 = 0.25 | 456.5 ± 0.35
380 K, 5998.4 kPa, x2 = 0.75 | 471.8 ± 0.36
380 K, 6010.6 kPa, x2 = 0.5 | 464.88 ± 0.35
380 K, 6475.4 kPa, x2 = 0.75 | 474.16 ± 0.37
380 K, 6476.8 kPa, x2 = 0.25 | 459.36 ± 0.36
380 K, 6505.2 kPa, x2 = 0.5 | 467.52 ± 0.36
380 K, 6967.5 kPa, x2 = 0.75 | 476.48 ± 0.37
380 K, 6981.4 kPa, x2 = 0.5 | 469.94 ± 0.37
380 K, 7003.2 kPa, x2 = 0.25 | 462.28 ± 0.37

mass density [kg/m3]
Settings | 300 K | 320 K | 340 K | 360 K | 380 K
x2 = 0.25 | 553.87 ± 0.27 | 527.89 ± 0.28 | 499.35 ± 0.29 | – | 424.73 ± 0.27
x2 = 0.5 | 559.44 ± 0.27 | 534.14 ± 0.28 | 506.18 ± 0.29 | 474.18 ± 0.28 | 435.21 ± 0.27
x2 = 0.75 | 564.78 ± 0.27 | 540.17 ± 0.28 | 512.91 ± 0.28 | 481.73 ± 0.28 | 445.14 ± 0.27
